Patent US20260234159A1, “SMALL MOLECULE TREATMENT OF FATTY LIVER DISEASE AND HCC” (SCANDIEDGE THERAPEUTICS AB, priority 2023, published 2026)

Experiments:
JNK1/2/3 = assay: Western blot, JNK1/2/3 P54 and p46 isoforms; type: cell-based, human; settings: 10 μM, 2 days
Method: HepG2 cells were seeded into a 6-well plate at 400,000 cells per well. After treatment with 10 μM of JNK-IN-5A and its derivatives for two days, lysates were harvested with CelLytic M (C2978, Sigma-Aldrich). […] SDS PAGE were performed using Mini-PROTEAN® TGX™ Precast Gels (Bio-Rad) and transferred using Trans-Blot® Turbo™ Transfer System (Bio-Rad). […] ImageQuantTMLAS 500 (29-0050-63, GE) was used to detect protein bands.

HepG2 cells = assay: Invasion assay (transwell); type: cell-based, human; settings: Homo sapiens, HepG2, 24 hr, read-out: invasiveness reduced by
Summary of the method: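 HepG2 cells (100,000) in serum-free medium with compounds placed on collagen-coated 8 μm transwell membranes, with 10% FBS medium below as attractant. After one day at 37 °C, cells fixed in formaldehyde and stained with crystal violet. Invaded cells on the outer membrane imaged and counted.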

[1] = In vivo toxicological study in rats: haematology; parameters: species or system rats of the Wistar strain
Method: Forty-two male and forty-two female rats of the Wistar strain were allocated to the study. Three groups of three males and three females were given doses of 30, 100 and 300 mg/kg of target compounds (Table 8). The vehicle was 1.5 w/w % HPMC, 1.5 w/w % PS80 in 10 mM PBS, pH 7 and dose volume were 5 mL/kg. The animals were acclimatised at least 14 day prior to the study and exposed to a 12 hours light, 12 hours dark light cycle. The formulations were administered via oral gavage. Administration occurred once daily in the morning for seven consecutive days. Blood for scheduled haematology and plasma chemistry were taken at necropsy. For plasma chemistry, 0.6 ml blood (lithium heparin) per animal and for haematology, 0.5 ml blood (K2EDTA) per animal. The blood and plasma were analysed using Exigo analyzer and Vetscan equipment. Blood was analysed within 60 min of sampling. On the morning of analysis, the Exigo analyzer was checked against a reference sample provided by the manufacturer, and a control sample analysis cycle was performed (Table 9).

[2] = In vivo toxicological study in rats: clinical observations and body weight; settings: 300 mg/kg oral administration
Method: Forty-two male and forty-two female rats of the Wistar strain were allocated to the study. Three groups of three males and three females were given doses of 30, 100 and 300 mg/kg of target compounds (Table 8). The vehicle was 1.5 w/w % HPMC, 1.5 w/w % PS80 in 10 mM PBS, pH 7 and dose volume were 5 mL/kg.
The animals were acclimatised at least 14 day prior to the study and exposed to a 12 hours light, 12 hours dark light cycle. The formulations were administered via oral gavage. Administration occurred once daily in the morning for seven consecutive days.
A check of animal health and welfare status was done at least once on working days and weekend days.
Body weights were recorded the week before and within 24 hours before start of dosing, on Day 3 and on necropsy Day 8.

[3] = female, 30 mg/kg oral daily 7 d
[4] = female, 100 mg/kg oral daily 7 d
[5] = female, 300 mg/kg oral daily 7 d

With `N#Cc1c(NC(=O)c2cccc3ccccc23)sc2c1CCCC2` [JNK-IN-5A, N-(3-cyano-4,5,6,7-tetrahydrobenzo[b]thiophen-2-yl)-1-naphthamide] the “JNK1/2/3 p46 expression” value (JNK1/2/3) was 0.88 times and the inhibition at 1 µM (HepG2 cells) was 24.9%.

For `COc1ccccc1NC(=O)N1CCc2c(sc(NC(=O)c3cccc4ccccc34)c2C#N)C1` [PKL-A152], the GRAN [1, 3] was 1.00 10^9/l, the HCT [1, 3] was 41.5% and the HGB [1, 3] was 14.1 g/dL. The LYM [1, 3] was 5.6 10^9/l, the MCH [1, 3] was 19.5 pg and the MCHC [1, 3] was 34.1 g/dL. The MCV [1, 3] was 57.2 fL, the MONO [1, 3] was 0.17 10^9/l and the PLT [1, 3] was 1089 10^9/l. The RBC [1, 3] was 7.24 10^12/l, the RDW % [1, 3] was 13.9% and the WBC [1, 3] was 6.8 10^9/l. For the same molecule, the GRAN [1, 4] was 1.20 10^9/l, the HCT [1, 4] was 42.0% and the HGB [1, 4] was 14.3 g/dL. The LYM [1, 4] was 5.7 10^9/l, the MCH [1, 4] was 19.5 pg and the MCHC [1, 4] was 34 g/dL. For the same molecule, the MCV [1, 4] was 57.4 fL, the MONO [1, 4] was 0.17 10^9/l and the PLT [1, 4] was 1122 10^9/l. For the same molecule, the RBC [1, 4] was 7.32 10^12/l, the RDW % [1, 4] was 14.0% and the WBC [1, 4] was 7.1 10^9/l. For the same molecule, the GRAN [1, 5] was 1.03 10^9/l, the HCT [1, 5] was 42.9% and the HGB [1, 5] was 14.7 g/dL. The LYM [1, 5] was 4.8 10^9/l, the MCH [1, 5] was 19.7 pg and the MCHC [1, 5] was 34.1 g/dL. For the same molecule, the MCV [1, 5] was 57.7 fL, the MONO [1, 5] was 0.23 10^9/l and the PLT [1, 5] was 1062 10^9/l. The RBC [1, 5] was 7.43 10^12/l, the RDW % [1, 5] was 14.1% and the WBC [1, 5] was 6.0 10^9/l. The GRAN ([1]; male, 30 mg/kg oral daily 7 d) was 1.50 10^9/l, the HCT ([1]; male, 30 mg/kg oral daily 7 d) was 46.3% and the HGB ([1]; male, 30 mg/kg oral daily 7 d) was 15.6 g/dL. The LYM ([1]; male, 30 mg/kg oral daily 7 d) was 5.9 10^9/l, the MCH ([1]; male, 30 mg/kg oral daily 7 d) was 19.6 pg and the MCHC ([1]; male, 30 mg/kg oral daily 7 d) was 33.8 g/dL. For the same molecule, the MCV ([1]; male, 30 mg/kg oral daily 7 d) was 58.0 fL, the MONO ([1]; male, 30 mg/kg oral daily 7 d) was 0.23 10^9/l and the PLT ([1]; male, 30 mg/kg oral daily 7 d) was 922 10^9/l. The RBC ([1]; male, 30 mg/kg oral daily 7 d) was 7.97 10^12/l, the RDW % ([1]; male, 30 mg/kg oral daily 7 d) was 14.2% and the WBC ([1]; male, 30 mg/kg oral daily 7 d) was 7.7 10^9/l. For the same molecule, the GRAN ([1]; male, 100 mg/kg oral daily 7 d) was 1.47 10^9/l, the HCT ([1]; male, 100 mg/kg oral daily 7 d) was 44.7% and the HGB ([1]; male, 100 mg/kg oral daily 7 d) was 15.1 g/dL. The LYM ([1]; male, 100 mg/kg oral daily 7 d) was 6.9 10^9/l, the MCH ([1]; male, 100 mg/kg oral daily 7 d) was 19.8 pg and the MCHC ([1]; male, 100 mg/kg oral daily 7 d) was 33.8 g/dL. For the same molecule, the MCV ([1]; male, 100 mg/kg oral daily 7 d) was 58.8 fL, the MONO ([1]; male, 100 mg/kg oral daily 7 d) was 0.17 10^9/l and the PLT ([1]; male, 100 mg/kg oral daily 7 d) was 990 10^9/l. The RBC ([1]; male, 100 mg/kg oral daily 7 d) was 7.63 10^12/l, the RDW % ([1]; male, 100 mg/kg oral daily 7 d) was 14.6% and the WBC ([1]; male, 100 mg/kg oral daily 7 d) was 8.5 10^9/l. For the same molecule, the GRAN ([1]; male, 300 mg/kg oral daily 7 d) was 1.17 10^9/l, the HCT ([1]; male, 300 mg/kg oral daily 7 d) was 45.6% and the HGB ([1]; male, 300 mg/kg oral daily 7 d) was 15.4 g/dL. The LYM ([1]; male, 300 mg/kg oral daily 7 d) was 5.8 10^9/l, the MCH ([1]; male, 300 mg/kg oral daily 7 d) was 19.7 pg and the MCHC ([1]; male, 300 mg/kg oral daily 7 d) was 33.8 g/dL. For the same molecule, the MCV ([1]; male, 300 mg/kg oral daily 7 d) was 58.4 fL, the MONO ([1]; male, 300 mg/kg oral daily 7 d) was 0.17 10^9/l and the PLT ([1]; male, 300 mg/kg oral daily 7 d) was 1046 10^9/l. The RBC ([1]; male, 300 mg/kg oral daily 7 d) was 7.80 10^12/l, the RDW % ([1]; male, 300 mg/kg oral daily 7 d) was 14.4% and the WBC ([1]; male, 300 mg/kg oral daily 7 d) was 7.2 10^9/l. For the same molecule, the “tolerability (adverse clinical signs, body weight, clinical pathology parameters)” value [2] was “well tolerated”.
